Source: patent US20160060660A1, “BIOTECHNOLOGICAL PRODUCTION OF ITACONIC ACID” (UNIVERSITÉ DU LUXEMBOURG, priority 2013, published 2016)
Where two headings read alike, the source gives them in different places.

Assays:
[1] = system: Mycobacterium tuberculosis H37Rv; type: cell-based
[2] = system: Salmonella enterica serovar Typhimurium
Procedure: Salmonella enterica serovar Typhimurium bacteria were grown in liquid medium as detailed in the text in the presence different concentrations of itaconic acid or cis-aconitate (5, 10, 50, 100 mM). Growth was measured as optical density (OD) at indicated time points.

[3] = system: human PBMCs-derived macrophages; assay: NO donor treatment of human PBMCs-derived macrophages, itaconic acid levels; type: cell-based; settings: 1, 10, 100 μM, with or without LPS, 12 h
Procedure: Human PBMCs were seeded and differentiated into macrophages as described above. Diethylamine NONOate (DEA NONOate, Sigma), an intracellular NO donor, was added at different concentrations (1, 10, 100 μM) alone or together with LPS (100 μg/ml). After 12 h of incubation, the metabolites were extracted.
After 12 h, 180 μl of medium was harvested and combined with 20 μl of 1 mM NaOH on ice to stop the dissociation reaction. Levels of nitrite formed from the reaction with H2O were determined using the Griess assay. In brief, 50 μl of medium sample or nitrite IC standard (Sigma) was pipetted in triplicate in a 96-well plate. To each well, equal volumes of 1× Griess Reagent (Sigma) were added. Absorbance was read at 540 nm and nitrite concentrations were calculated.

Irg1 protein = target: T1, Irg1 protein (Mus musculus, UniProt P54987); assay: Cis-aconitate decarboxylase activity of extracts and purified fractions from HEK293T cells transfected with pCMV6-Entry-Irg1; type: biochemical; settings: 1 mM cis-aconitate, 30° C., 40 min
T1 construct: made in house; host or cells: HEK293T
T1 sequence (P54987 1-488): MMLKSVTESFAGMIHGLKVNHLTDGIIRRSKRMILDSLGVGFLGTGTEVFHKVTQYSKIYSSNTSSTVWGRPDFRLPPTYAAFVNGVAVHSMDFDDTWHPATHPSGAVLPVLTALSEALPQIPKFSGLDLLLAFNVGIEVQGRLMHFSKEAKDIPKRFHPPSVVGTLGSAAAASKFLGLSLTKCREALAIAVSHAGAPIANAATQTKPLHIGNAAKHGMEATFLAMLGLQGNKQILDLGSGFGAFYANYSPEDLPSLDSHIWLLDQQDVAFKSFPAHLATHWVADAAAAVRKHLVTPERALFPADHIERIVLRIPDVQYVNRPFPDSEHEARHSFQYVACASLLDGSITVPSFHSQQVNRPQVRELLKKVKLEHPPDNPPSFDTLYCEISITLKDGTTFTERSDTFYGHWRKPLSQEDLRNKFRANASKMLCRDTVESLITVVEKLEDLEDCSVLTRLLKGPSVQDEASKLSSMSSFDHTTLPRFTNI
Procedure: Protein concentration was measured by the Bradford assay using Bradford reagent (Bio-Rad). […] Reactions were stopped by addition of 900 μl methanol/water (8:1) mix. […] (Labconco).

human IRG1 = target: T2, human IRG1 (Homo sapiens, UniProt A6NK06); assay: CAD activity assay, Michaelis-Menten kinetics of purified human IRG1; type: biochemical; settings: substrate cis-aconitic acid 0 to 1 mmol/l, pH=6.2, 37° C., read-out: Michaelis-Menten constant KM for itaconic acid formation
T2 construct: made in house
T2 sequence (A6NK06 1-481): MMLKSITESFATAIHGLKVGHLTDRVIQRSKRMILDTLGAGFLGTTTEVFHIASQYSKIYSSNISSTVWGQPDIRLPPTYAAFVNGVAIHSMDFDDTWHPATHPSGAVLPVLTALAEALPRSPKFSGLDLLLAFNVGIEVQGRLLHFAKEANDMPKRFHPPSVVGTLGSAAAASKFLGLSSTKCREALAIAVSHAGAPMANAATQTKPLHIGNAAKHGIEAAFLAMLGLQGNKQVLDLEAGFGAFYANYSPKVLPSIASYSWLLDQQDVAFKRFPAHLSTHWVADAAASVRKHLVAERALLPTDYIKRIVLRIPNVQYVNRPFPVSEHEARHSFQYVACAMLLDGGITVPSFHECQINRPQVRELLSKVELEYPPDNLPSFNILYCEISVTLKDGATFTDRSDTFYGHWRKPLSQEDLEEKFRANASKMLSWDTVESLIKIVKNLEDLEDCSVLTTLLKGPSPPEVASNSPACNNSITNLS
Procedure: (§1) The purified proteins were then used for enzyme activity assays. Cis-aconitic acid was used as a substrate at concentrations in the range of 0 to 1 mmol*I^−1 at pH=6.2 and 37° C. To determine the time dependent itaconic acid production, itaconic acid level was measured after 5 and 15 min of incubation. To determine the correlation between itaconic acid production and IRG1 activity, the substrate concentrations were plotted against the rate of itaconic acid formation.
(§2) Proteins produced in HEK293FT cells, which have been transfected with human and mouse pCMV6-Irg1 overexpression plasmid as well as pCMV6-Entry plasmid, were purified, separated on SDS-Page, detected with western blotting or silver staining and characterized with in-vitro enzyme assays.
(§3) Enzyme solutions were used from F1 as well as F2 and cis-aconitic acid and citric acid were used as substrates. Sampling took place 5 min and 15 min after enzyme supplementation. 95 μl enzyme solution were transferred into sampling tubes containing 230 μl methanol at −20° C. and centrifuged for 10 min at 4° C. with 16,000×g. 290 μl were dried in glass vials under vacuum and analyzed with GC-MS. […] The kinetic parameter Km of the purified enzymes was determined with Michaelis-Menten model using the statistical tool R (R Development Core Team, 2011).

murine IRG1 = target: T3, murine IRG1 (Mus musculus, UniProt P54987); assay: CAD activity assay, Michaelis-Menten kinetics of purified murine IRG1; type: biochemical; settings: substrate cis-aconitic acid 0 to 1 mmol/l, pH=6.2, 37° C., read-out: Michaelis-Menten constant KM for itaconic acid formation
T3 construct: made in house
T3 sequence (P54987 1-488): T1 sequence (P54987 1-488)
Procedure: as §1, §2, §3

How did the “effect on M. tuberculosis growth” value ([1]; medium supplemented with cis-aconitate, acetate or glycerol) turn out when `O=C(O)/C=C(/CC(=O)O)C(=O)O` [cis-aconitate, cis-aconitic acid, reference compound] was run?
The value was “more pronounced growth”.

And the “effect on S. enterica growth” value ([2]; medium supplemented with cis-aconitate, acetate)?
The value was “more pronounced growth”.

For `CCN(CC)/[N+]([O-])=N/O.CCNCC` [diethylamine NONOate, Diethylamine NONOate], which “effect on intracellular itaconic acid levels” value [3] is on record?
The value was “could not detect any effect”.

Which results are given for `C=C(CC(=O)O)C(=O)O` [itaconic acid]?
concentration at which growth of M. tuberculosis was completely inhibited [1]: 25 to 50 mM; effect on M. tuberculosis growth ([1]; glycerol as carbon source): does not affect the bacterial growth; concentration inhibiting M. tuberculosis growth ([1]; glycerol with 0.1 μM propionate): 5 to 10 mM; effect on S. enterica growth ([2]; glucose as carbon source): does not affect the bacterial growth; concentration at which significant effects on S. enterica growth were observed ([2]; liquid medium with acetate as unique carbon source): 10 mM

“FLAG-tagged Irg1 protein: FLAG-tagged Irg1 protein from HEK293T cells transfected with pCMV6-Entry-Irg1; presumably murine Irg1” was tested. Which cis-aconitate decarboxylase activity (Irg1 protein) did it give?
The cis-aconitate decarboxylase activity was “catalyzed the conversion of cis-aconitate to itaconic acid”.

“IRG1 human: Flag-tagged human immune-responsive gene 1 protein (SEQ ID NO 2) purified from transfected HEK293T cells” was tested. Which Km (human IRG1) did it give?
The Km was 30 µM.

“IRG1 mouse: Flag-tagged mouse immune-responsive gene 1 protein (SEQ ID NO 4) purified from transfected HEK293T cells” was tested. Which Km (murine IRG1) did it give?
Its Km is 70 µM.
